Common to all, as to assay type: functional
The test system of experiment [1] is Staphylococcus aureus. Nature of the experiment: Antibacterial activity against vancomycin-intermediate Staphylococcus aureus Mu50 after 48 hrs by Etest. The note with it: Mu50, 48 h.
For experiment [2], the system named is Staphylococcus aureus. Nature of the experiment: Antibacterial activity against vancomycin-susceptible Staphylococcus aureus Mu50omega after 48 hrs by Etest.
Experiment [3] relates to Staphylococcus aureus. As to the kind of experiment: Antibacterial activity against vancomycin-susceptible Staphylococcus aureus Mu50omega after 24 hrs by Etest.
Experiment [4] deals with Staphylococcus aureus. As to the kind of experiment: Antibacterial activity against vancomycin-intermediate Staphylococcus aureus Mu50 after 24 hrs by Etest. The note with it: Mu50, 24 h.
Experiment [5] relates to Staphylococcus aureus. As to the kind of experiment: Antibacterial activity against vancomycin-susceptible Staphylococcus aureus Mu50omega expressing vraSm, graRm mutant gene after 24 hrs by Etest.
In experiment [6] the test system is Staphylococcus aureus. Nature of the experiment: Antibacterial activity against vancomycin-susceptible Staphylococcus aureus Mu50omega expressing vraSn mutant gene after 24 hrs by Etest.
Experiment [7] has as its system Staphylococcus aureus. As to the kind of experiment: Antibacterial activity against vancomycin-susceptible Staphylococcus aureus Mu50omega expressing vraSm mutant gene after 24 hrs by Etest.
Experiment [8] has as its system Staphylococcus aureus. Nature of the experiment: Antibacterial activity against vancomycin-susceptible Staphylococcus aureus Mu50omega expressing vraSn mutant gene after 48 hrs by Etest.
Experiment [9] relates to Staphylococcus aureus. Nature of the experiment: Antibacterial activity against vancomycin-susceptible Staphylococcus aureus Mu50omega expressing vraSm, graRm mutant gene after 48 hrs by Etest.
The test system of experiment [10] is Staphylococcus aureus. Nature of the experiment: Antibacterial activity against vancomycin-susceptible Staphylococcus aureus Mu50omega expressing vraSm mutant gene after 48 hrs by Etest.

We go through ten molecules from ChEMBL document CHEMBL1629665, “Contribution of vraSR and graSR point mutations to vancomycin resistance in vancomycin-intermediate Staphylococcus aureus” (2009).

Structures are written as SMILES. Values after ≈ are worked out from the molar mass of the structure shown.

As a reminder, the MIC is the smallest concentration in the dilution series that meets the test's criterion for growth inhibition. In the case of `C[C@H]1c2cccc(O)c2C(=O)C2=C(O)[C@]3(O)C(=O)C(C(N)=O)=C(O)[C@@H](N(C)C)[C@@H]3[C@@H](O)[C@@H]21.O` [DOXYCYCLINE], the MIC in [1] was greater than 256 µg/mL; in [2], greater than 256 µg/mL; in [3], 8 µg/mL; in experiment [4], 8 µg/mL; in [5], 8 µg/mL; in experiment [6], 8 µg/mL. In addition, in experiment [7], the MIC was 8 µg/mL.

`CC[C@H]1OC(=O)[C@H](C)[C@@H](O[C@H]2C[C@@](C)(OC)[C@@H](O)[C@H](C)O2)[C@H](C)[C@@H](O[C@@H]2O[C@H](C)C[C@H](N(C)C)[C@H]2O)[C@](C)(O)C[C@@H](C)C(=O)[C@H](C)[C@@H](O)[C@]1(C)O` [ERYTHROMYCIN]: the MIC in experiment [1] was greater than 250 µg/mL; in experiment [2], greater than 256 µg/mL; in experiment [3], greater than 256 µg/mL; in experiment [4], greater than 250 µg/mL.

In the case of `C[C@@H](O)[C@H]1C(=O)N2C(C(=O)O)=C(SCCNC=N)C[C@H]12` [IMIPENEM ANHYDROUS], the MIC in [1] was greater than 32 µg/mL; in experiment [8], greater than 32 µg/mL; in [2], 0.38 µg/mL (≈ 1.27 µM); in [9], greater than 32 µg/mL; in experiment [3], 0.38 µg/mL (≈ 1.27 µM); in experiment [10], greater than 32 µg/mL. The MIC in experiment [4], in experiment [5], in [6] and in experiment [7] was greater than 32 µg/mL throughout.

With `C[C@H]1COc2c(N3CCN(C)CC3)c(F)cc3c(=O)c(C(=O)O)cn1c23.C[C@H]1COc2c(N3CCN(C)CC3)c(F)cc3c(=O)c(C(=O)O)cn1c23.O` [LEVOFLOXACIN], the MIC in [1], in experiment [2], in experiment [3] and in [4] was greater than 32 µg/mL throughout.

For `CC(=O)NC[C@H]1CN(c2ccc(N3CCOCC3)c(F)c2)C(=O)O1` [LINEZOLID], the MIC in experiment [1], in experiment [8], in [2], in experiment [9], in experiment [3] and in experiment [10] was 0.5 µg/mL (≈ 1.48 µM) throughout. The minimal inhibitory concentration (MIC) in experiment [4], in experiment [5], in experiment [6] and in experiment [7] was 0.5 µg/mL (≈ 1.48 µM) in each case.

`COc1cccc(OC)c1C(=O)N[C@@H]1C(=O)N2[C@@H]1SC(C)(C)[C@@H]2C(=O)O` [METHICILLIN]: the MIC in experiment [1], in experiment [2], in [3] and in experiment [4] was greater than 256 µg/mL throughout.

With `CN(C)c1ccc(O)c2c1C[C@H]1C[C@H]3[C@H](N(C)C)C(O)=C(C(N)=O)C(=O)[C@@]3(O)C(O)=C1C2=O` [MINOCYCLINE], the minimum inhibitory concentration (MIC) was found to be 24 µg/mL (≈ 52.5 µM) in experiment [1]; 24 µg/mL (≈ 52.5 µM) in experiment [8]; 24 µg/mL (≈ 52.5 µM) in experiment [2]; 24 µg/mL (≈ 52.5 µM) in experiment [9]; 10 µg/mL (≈ 21.9 µM) in [3]; 24 µg/mL (≈ 52.5 µM) in [10]. Further, the MIC came out at 12 µg/mL (≈ 26.2 µM) in experiment [4], 8 µg/mL (≈ 17.5 µM) in experiment [5], 8 µg/mL (≈ 17.5 µM) in experiment [6] and 8 µg/mL (≈ 17.5 µM) in experiment [7].

Regarding `Cc1onc(-c2ccccc2)c1C(=O)N[C@@H]1C(=O)N2[C@@H]1SC(C)(C)[C@@H]2C(=O)O` [OXACILLIN], the MIC was greater than 256 µg/mL in experiment [1]; greater than 256 µg/mL in experiment [8]; 8 µg/mL (≈ 19.9 µM) in experiment [2]; greater than 256 µg/mL in experiment [9]; 8 µg/mL (≈ 19.9 µM) in experiment [3]; greater than 256 µg/mL in [10]. Besides, the MIC in [4], in experiment [5], in [6] and in experiment [7] was greater than 256 µg/mL throughout.

For the molecule `C[C@@H]1CN(c2c(F)c(N)c3c(=O)c(C(=O)O)cn(C4CC4)c3c2F)C[C@H](C)N1` [SPARFLOXACIN], the MIC in experiment [1], in [2], in [3] and in experiment [4] was greater than 32 µg/mL each time.

`CN(C)[C@@H]1C(O)=C(C(N)=O)C(=O)[C@@]2(O)C(O)=C3C(=O)c4c(O)cccc4[C@@](C)(O)[C@H]3C[C@@H]12` [TETRACYCLINE]: the minimal inhibitory concentration (MIC) in experiment [1] was 48 µg/mL (≈ 108 µM); in experiment [8], 48 µg/mL (≈ 108 µM); in [2], 48 µg/mL (≈ 108 µM); in [9] it was 48 µg/mL (≈ 108 µM); in [3], 32 µg/mL (≈ 72 µM); in experiment [10], 48 µg/mL (≈ 108 µM). The MIC in experiment [4] stood at 32 µg/mL (≈ 72 µM); in [5], 24 µg/mL (≈ 54 µM); in [6], 24 µg/mL (≈ 54 µM); in experiment [7], 24 µg/mL (≈ 54 µM).
